Patent US10959968B2, “Methods for treating c-Met-dependent cancers” (Board of Supervisors of Louisiana State University and …, priority 2016, dated 2021)
Entries after “also recorded” stand apart in the source; their conditions may differ.

Tests used:
[1] = test system: non-tumorigenic human MCF10A mammary epithelial cells; experiment: Viability of non-tumorigenic mammary epithelial cells; format: cell-based; conditions: similar treatment doses; 24 h
[2] = test system: DU145 human prostate cancer cells (pMet, pAkt, pErk); experiment: Western blot of HGF-induced signaling in prostate cancer cells; format: cell-based; conditions: 30 min pretreatment, 30 min HGF
Description: FIG. 4. A) Effect of HVS treatment on HGF-induced c-Met activation in human breast cancer cells using Western Blot analysis. Treatment with HVS caused a significant, dose-responsive inhibition of HGF-induced c-Met phosphorylation in MDA-MB-231, MCF-7, and BT-474 mammary tumor cells with no effect on total c-Met levels after treatment for 72 h, as compared to their respective vehicle-treated control groups. The visualization of β-tubulin was used as a loading control. (B) Effect of HVS on HGF-induced c-Met activation and its downstream mitogenic signaling in DU145 human prostate cancer cells, as compared to vehicle-treated control group, using Western Blot analysis. Cells were pre-treated for 30 minutes with either HVS at 0.1, 0.3, 1, and 5 μM or (−)-oleocanthal at 5, 10, and 20 μM doses in serum-free 0.4-media. 33 ng/mL HGF was then added for 30 minutes. Whole cell lysates were collected and assayed by Western Blot. The visualization of α-tubulin was used as a loading control. Representative Western Blots from each experiment are shown, N=3.
DU145 prostate tumor cells were pretreated for 30 minutes with the indicated compounds. Following pretreatment, cells were pulsed for thirty minutes with HGF, cell lysates were prepared and western blot analysis was performed to identify pMet, pAkt, pErk and tubulin.

[3] = test system: MDA-MB-231 human breast cancer cells; experiment: Wound healing assay, HGF-induced migration; format: cell-based; conditions: wound closure at 24 h
Description: (§1) FIG. 6. (A) Effect of HVS on HGF-induced migration of the highly metastatic MDA-MB-231 human breast cancer cells in wound healing assay. […] Vertical bars indicate the percentage of wound closure at 24 h after wounding, calculated relative to the wound distance at zero time±SEM of N=6 in each treatment group. SU11274 and (−)-oleocanthal were used as positive controls at 10 μM. Right panel represents photomicrographs of wound healing assay showing HVS treatment at three different concentrations (1.25, 2.5, and 5 μM) blocked the migration of MDA-MB-231 cells in response to HGF stimulation, as compared to DMSO as a vehicle control. (B) Effect of HVS on HGF-induced cell invasion of the highly aggressive MDA-MB-231 human breast cancer cells using Cultrex® BME cell invasion assay. The cells were treated with different concentrations of HVS for 24 h. Vertical bars indicate the percentage of cells invading the basement membrane at the end of treatment period±SEM of N=3 in each treatment group. (−)-Oleocanthal was used as a positive control at 20 μM dose.*P<0.05 as compared with vehicle-treated control. (C) Effect of HVS on HGF-induced scattering of the DU145 human prostate cancer cells in 2D monolayer cultures, compared to DMSO as vehicle control. Cells were treated with indicated concentrations of HVS for 30 minutes in serum-free media. […]

[4] = test system: DU145 human prostate cancer cells; experiment: Cell scattering in 2D monolayer cultures; format: cell-based; conditions: 16 h, listed as HVS
Description: as §1

[5] = test system: MDA-MB-231/GFP human breast cancer cells; experiment: Orthotopic breast cancer xenograft in athymic nude mice; format: in vivo; conditions: 10 mg/kg ip, 3×/week; end of study
Description: Treatment regimens were administered 3×/week, starting 5 days postinoculation. (A) Left panel; tumor volume was evaluated periodically during treatment at the indicated days postinoculation. Tumor volume (V) was calculated by V=(L×W^2)/2, where L was the length and W was the width of tumors. Points, the mean of tumor volume in mm^3 of several tumors (n=5) during the course of the treatment period; bars±SEM. *P<0.05 as compared to vehicle-treated control. Right panel; shown are two mice harboring human breast cancer. […] Error bars indicate SEM for n=5. (C) Left panel; vertical bars indicate mean tumor weight at the end of the experiment.*P<0.05 as compared to the vehicle-treated control. Error bars indicate SEM for n=5.
Breast tumor growth was compared between animals dosed ip with 10 mg/kg of HVS (n=5), 3×/week, starting on the 5th day post-inoculation and continuing for 4 weeks, vs. non-treated animals in a control group (DMSO). Tumor progression was followed by direct measurement of tumor volume starting 14 days after orthotopic cell inoculation.

DU145 spheroids = experiment: 3D spheroid growth, IncuCyte; format: cell-based, human; conditions: 72 hours
Description: FIG. 9B: DU145 cells were grown in 10% FBS DMEM. Cells were collected after trypsinization and resuspended in phenol-red free DMEM with 10% FBS. Cells were labeled with Cell-Tracker Red (Life Technologies) for 5 minutes. After labeling cells were washed with PBS and transfer into 96-well Corning 7007 ULA round bottom plates at 1,000 cells/well in 100 μl phenol-red free media with 10% FBS and 5% Matrigel. […] Spheroids were grown at 37° C. and 5% CO2 in IncuCyte ZOOM (Essen Bioscience). Images were acquired every 4 h for a period of 72 h post-treatment and software analysis was design to identify the red object in the well. The data were expressed as fold increase in spheroids size at the end of the treatment using the “average red object area in the well” as determined by the IncuCyte software analysis. FIG. 9C: Visually representative spheroids that are quantitated in FIG. 9B.
To determine the effectiveness of these compounds under 3D growth conditions which more accurately predict effectiveness of new drugs in humans, DU145 spheroids were formed and allowed to grow for 72 hours. Images were recorded every 4 hours using the Incucyte platform. […] Compounds 9 and 10, at 10 micromolar reduced spheroid growth by about 50 percent (not shown).

MDA-MB231 spheroids = experiment: 3D spheroid growth, IncuCyte; format: cell-based, human; conditions: Homo sapiens, MDA-MB-231, 10 micromolar, up to 72 hours
Description: FIG. 9. (A). MDA-MB231 cells were grown in 10% FBS DMEM. Cells were collected after trypsinization and resuspended in phenol-red free DMEM with 10% FBS. Cells were labeled with CellTracker Red (Life Technologies) for 5 minutes. After labeling cells were washed with PBS and transfer into 96-well Corning 7007 ULA round bottom plates at 1,000 cells/well in 100 μl phenol-red free media with 10% FBS and 5% Matrigel. […] Spheroids were grown at 37° C. and 5% CO2 in IncuCyte ZOOM (Essen Bioscience). Images were acquired every 4 h for a period of 72 h post-treatment. The data were expressed as fold increase in spheroids size at the end of the treatment using the “average red object area in the well” as determined by the IncuCyte software analysis.
MDA-MB231 spheroids were all allowed to form and treated with compounds for up to 72 hours. Images were captured using the Incucyte platform.

ABL1 = ABL1 (Homo sapiens, UniProt P00519); experiment: SelectScreen Kinase Profiling; format: biochemical; conditions: read-out: Mean inhibition at 10 μM of HVS (%)
MST1R (RON0) = molecular target: MST1R (RON0 (Homo sapiens, UniProt Q04912)); experiment: SelectScreen Kinase Profiling; format: biochemical; conditions: read-out: Mean inhibition at 10 μM of HVS (%)
TYRO3 (RSE) = TYRO3 (RSE) (Homo sapiens, UniProt Q06418); experiment: SelectScreen Kinase Profiling; format: biochemical; conditions: read-out: Mean inhibition at 10 μM of HVS (%)
Sequence of TYRO3 (RSE) (Q06418 41-890): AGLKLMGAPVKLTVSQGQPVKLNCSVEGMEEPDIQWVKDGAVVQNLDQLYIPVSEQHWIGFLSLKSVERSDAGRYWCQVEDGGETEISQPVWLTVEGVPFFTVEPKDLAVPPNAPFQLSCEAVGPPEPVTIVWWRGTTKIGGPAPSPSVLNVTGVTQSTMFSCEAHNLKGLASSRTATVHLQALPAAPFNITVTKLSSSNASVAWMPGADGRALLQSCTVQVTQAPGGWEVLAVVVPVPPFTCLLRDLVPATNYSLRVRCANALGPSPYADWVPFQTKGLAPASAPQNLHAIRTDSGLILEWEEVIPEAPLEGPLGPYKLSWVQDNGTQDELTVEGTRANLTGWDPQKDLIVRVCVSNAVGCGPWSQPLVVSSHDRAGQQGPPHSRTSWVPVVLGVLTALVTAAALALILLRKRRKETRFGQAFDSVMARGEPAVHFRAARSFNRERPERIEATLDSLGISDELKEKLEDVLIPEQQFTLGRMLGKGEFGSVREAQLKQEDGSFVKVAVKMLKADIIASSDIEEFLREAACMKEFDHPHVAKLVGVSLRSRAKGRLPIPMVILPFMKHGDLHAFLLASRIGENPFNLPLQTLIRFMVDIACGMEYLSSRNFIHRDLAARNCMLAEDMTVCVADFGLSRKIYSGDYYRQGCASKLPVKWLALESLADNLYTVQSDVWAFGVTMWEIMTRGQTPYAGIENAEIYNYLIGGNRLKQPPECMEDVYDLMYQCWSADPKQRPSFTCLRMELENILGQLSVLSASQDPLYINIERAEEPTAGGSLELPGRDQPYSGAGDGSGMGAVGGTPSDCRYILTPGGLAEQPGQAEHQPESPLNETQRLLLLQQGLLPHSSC

Sequence of ABL1 (P00519 whole entry): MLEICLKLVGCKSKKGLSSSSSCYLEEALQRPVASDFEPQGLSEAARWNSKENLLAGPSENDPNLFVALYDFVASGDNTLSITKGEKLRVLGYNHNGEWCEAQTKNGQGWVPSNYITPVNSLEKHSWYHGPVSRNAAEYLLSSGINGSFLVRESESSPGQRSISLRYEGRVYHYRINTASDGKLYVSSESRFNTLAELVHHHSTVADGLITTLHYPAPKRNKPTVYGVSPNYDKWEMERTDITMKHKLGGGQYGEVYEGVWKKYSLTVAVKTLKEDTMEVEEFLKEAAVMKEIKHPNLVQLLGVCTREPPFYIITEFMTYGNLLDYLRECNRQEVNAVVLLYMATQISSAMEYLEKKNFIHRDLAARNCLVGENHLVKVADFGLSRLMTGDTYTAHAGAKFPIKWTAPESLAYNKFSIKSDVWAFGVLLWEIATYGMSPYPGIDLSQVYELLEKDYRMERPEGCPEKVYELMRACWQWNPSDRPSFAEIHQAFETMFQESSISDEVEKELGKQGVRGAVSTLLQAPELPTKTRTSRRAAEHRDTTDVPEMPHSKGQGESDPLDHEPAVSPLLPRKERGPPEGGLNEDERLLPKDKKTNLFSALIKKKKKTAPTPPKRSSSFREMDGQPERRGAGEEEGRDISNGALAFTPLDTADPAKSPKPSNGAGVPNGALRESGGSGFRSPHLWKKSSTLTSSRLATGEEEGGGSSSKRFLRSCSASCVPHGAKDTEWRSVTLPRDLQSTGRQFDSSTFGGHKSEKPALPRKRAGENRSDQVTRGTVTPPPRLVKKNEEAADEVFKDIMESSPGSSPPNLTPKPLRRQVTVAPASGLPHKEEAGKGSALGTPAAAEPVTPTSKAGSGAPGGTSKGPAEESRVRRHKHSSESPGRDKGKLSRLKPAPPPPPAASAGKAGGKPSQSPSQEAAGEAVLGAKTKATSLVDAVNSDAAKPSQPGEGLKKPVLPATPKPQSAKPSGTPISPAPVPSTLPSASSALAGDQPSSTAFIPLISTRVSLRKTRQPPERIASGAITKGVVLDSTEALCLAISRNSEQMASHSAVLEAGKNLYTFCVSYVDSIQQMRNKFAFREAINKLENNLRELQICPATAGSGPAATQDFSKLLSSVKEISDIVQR
Sequence of MST1R (RON0 (Q04912 25-1400): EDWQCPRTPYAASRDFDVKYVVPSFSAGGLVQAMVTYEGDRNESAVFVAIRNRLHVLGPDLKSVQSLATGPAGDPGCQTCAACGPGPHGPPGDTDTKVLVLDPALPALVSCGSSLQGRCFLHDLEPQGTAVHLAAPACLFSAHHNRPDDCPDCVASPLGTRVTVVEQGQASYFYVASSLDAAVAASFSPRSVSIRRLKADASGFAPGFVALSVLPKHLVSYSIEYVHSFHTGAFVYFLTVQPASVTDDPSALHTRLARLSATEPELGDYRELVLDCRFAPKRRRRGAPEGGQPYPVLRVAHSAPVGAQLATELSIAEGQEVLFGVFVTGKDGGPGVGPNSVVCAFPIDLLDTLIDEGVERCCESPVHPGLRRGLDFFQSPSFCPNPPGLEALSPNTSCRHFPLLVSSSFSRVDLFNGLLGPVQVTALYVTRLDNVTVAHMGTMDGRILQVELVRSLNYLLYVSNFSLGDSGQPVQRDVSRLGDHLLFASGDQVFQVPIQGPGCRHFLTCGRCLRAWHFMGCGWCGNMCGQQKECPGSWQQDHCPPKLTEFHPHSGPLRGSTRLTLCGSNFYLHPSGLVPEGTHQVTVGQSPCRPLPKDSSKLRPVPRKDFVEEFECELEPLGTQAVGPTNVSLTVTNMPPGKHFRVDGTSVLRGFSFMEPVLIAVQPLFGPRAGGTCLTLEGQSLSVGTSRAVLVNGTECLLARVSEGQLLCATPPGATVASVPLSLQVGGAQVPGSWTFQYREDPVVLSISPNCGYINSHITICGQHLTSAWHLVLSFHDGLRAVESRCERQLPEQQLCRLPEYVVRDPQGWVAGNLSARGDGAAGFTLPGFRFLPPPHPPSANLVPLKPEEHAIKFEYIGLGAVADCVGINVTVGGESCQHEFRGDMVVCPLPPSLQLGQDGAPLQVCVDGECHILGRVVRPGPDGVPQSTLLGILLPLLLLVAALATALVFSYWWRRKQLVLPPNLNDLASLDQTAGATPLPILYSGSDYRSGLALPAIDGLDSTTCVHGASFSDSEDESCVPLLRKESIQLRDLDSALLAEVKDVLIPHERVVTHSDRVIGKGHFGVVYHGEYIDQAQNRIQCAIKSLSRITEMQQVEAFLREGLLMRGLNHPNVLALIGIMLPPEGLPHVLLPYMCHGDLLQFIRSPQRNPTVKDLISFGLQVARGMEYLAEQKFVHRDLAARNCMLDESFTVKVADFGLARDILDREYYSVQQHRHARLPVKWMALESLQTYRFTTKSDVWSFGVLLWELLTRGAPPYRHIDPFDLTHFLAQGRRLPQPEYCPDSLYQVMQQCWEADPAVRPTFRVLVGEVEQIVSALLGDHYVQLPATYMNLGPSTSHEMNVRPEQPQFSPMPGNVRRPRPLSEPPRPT

SMILES: COc1cc(CCOC(=O)/C=C/c2cc(OC)c(O)c(OC)c2)ccc1O [Compound 8, (E)-4-hydroxy-3-methoxyph-ethyl 3-(4-hydroxy-3,5-dimethoxyphenyl) acrylate]
- effect on non-tumorigenic human MCF10A cells [1]: no discernable effects
- HGF-induced (Met dependent) signaling [2]: effective even at submicromolar concentrations
- HGF-induced migration [3]: appears to inhibit
- HGF-induced cell scattering ([4]; 33 ng/mL HGF): significantly reduced; also recorded: appeared to block
- EGF-induced cell scattering ([4]; 100 ng/mL EGF, similar treatment doses): do not block; also recorded: not inhibited
- reduction in tumor growth vs vehicle-treated control [5]: 92%
- reduction of spheroid growth (DU145 spheroids; 10 micromolar): over 80%
- lowest concentration blocking spheroid growth (DU145 spheroids): ≤ 1 µM
- inhibition at 10 µM (MDA-MB231 spheroids): 80%
- inhibition at 10 µM (ABL1): 79%
- inhibition at 10 µM (MST1R (RON0)): 15%
- inhibition at 10 µM (TYRO3 (RSE)): 21%
